# “And” between values parts separate entries of the source, which are not always exact repeats. Equal values may be shown once.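 Tested at 5 concentrations; 48 h exposure; 96-well plates; endpoints linearly interpolated, else capped at highest concentration. GI50 = concentration required for 50% inhibition of growth. TGI denotes the concentration required for complete inhibition of growth.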
# Columns and labels:
# Assay in all cases: growth of human tumour cells (NCI), 48 h
# SK-MEL-28 melanoma = tested on: SK-MEL-28 melanoma
# UO-31 renal = tested on: UO-31 renal
# NCI-H226 lung = tested on: NCI-H226 lung
# MOLT-4 leukemia = tested on: MOLT-4 leukemia
# BT-549 breast = tested on: BT-549 breast
# M14 melanoma = tested on: M14 melanoma
# COLO 205 colon = tested on: COLO 205 colon
# LOX IMVI melanoma = tested on: LOX IMVI melanoma
# DU-145 prostate = tested on: DU-145 prostate
# SK-OV-3 ovarian = tested on: SK-OV-3 ovarian
SMILES,GI50 (SK-MEL-28 melanoma) [µM],TGI (SK-MEL-28 melanoma) [µM],GI50 (UO-31 renal) [µM],TGI (UO-31 renal) [µM],GI50 (NCI-H226 lung),TGI (NCI-H226 lung),GI50 (MOLT-4 leukemia) [µM],TGI (MOLT-4 leukemia) [µM],GI50 (BT-549 breast),TGI (BT-549 breast),GI50 (M14 melanoma),TGI (M14 melanoma),GI50 (COLO 205 colon) [µM],TGI (COLO 205 colon) [µM],GI50 (LOX IMVI melanoma),TGI (LOX IMVI melanoma),GI50 (DU-145 prostate) [µM],TGI (DU-145 prostate) [µM],GI50 (SK-OV-3 ovarian) [µM],TGI (SK-OV-3 ovarian)
Cc1nc2sc(C(=O)Nc3cccc(Br)c3)c(N)c2cc1C(O)c1ccccc1 (configuration not stated),4.61,23.7,1.82,16.5,2 µM,24.3 µM,0.58,> 100,1.75 µM,19.9 µM,0.466 µM,29.7 µM,3.61,20.2,0.731 µM,22.9 µM,0.672,13.9,1.76,19.1 µM
Clc1ccc2c(NCCNc3nc(N4CCCC4)nc4ccccc34)ccnc2c1,1.84,3.55,1.26,2.51,1.95 µM,4.06 µM,0.538,5.1,2.01 µM,4.98 µM,0.935 µM,2.76 µM,0.147,1.94,0.863 µM,2.34 µM,1.17,2.73,1.71,3.16 µM
COc1cc2c3c(n(CCCN4CCCC(O)C4)c(=O)c2cc1OC)-c1cc2c(cc1C3=O)OCO2 (configuration not stated),0.885,2.28,0.96,2.24,1.42 µM,4.31 µM,< 0.005,0.678,0.898 µM,3.21 µM,0.0297 µM,0.972 µM,2.51,6.33,0.0213 µM,0.849 µM,< 0.005,0.592,3.8,27.2 µM
Cc1cc2nc(C(Cl)Cl)nc(-c3ccccc3)n2n1,3.54,13.1,5.02,21.6,> 100 µM,> 100 µM,5.67,> 100,17.4 µM,> 100 µM,,,1.77,4.56,24.4 µM,> 100 µM,1.95,5.41,3.34,21.5 µM
C=C(C)[C@@H]1CC[C@]2(C(N)=O)CC[C@]3(C)[C@H](CC[C@@H]4[C@@]5(C)C/C(=C/c6cccnc6)[C@H](O)C(C)(C)[C@@H]5CC[C@]43C)[C@@H]12,6.14,> 100,3.02,> 100,4.98 µM,> 100 µM,2.93,> 100,6.36 µM,> 100 µM,4.86 µM,> 100 µM,3.1,12.4,4.38 µM,37.1 µM,7.08,> 100,5.26,> 100 µM
O=[N+]([O-])c1cc2c(c([N+](=O)[O-])c1)Nc1ccccc1O2,19.5,> 100,2.76,36.5,5.97 µM,> 100 µM,6.22,> 100,7.58 µM,60.8 µM,11.5 µM,> 100 µM,10.5,27.8,4.67 µM,> 100 µM,7.32,> 100,15.2,58.6 µM
COc1cnc2c(c1)C(=O)c1c-2n(CCCNC(C)C)c(=O)c2cc([N+](=O)[O-])ccc12,0.121,0.351,0.0243,0.135,0.0651 µM,0.798 µM,0.0223,0.0941,0.107 µM,0.314 µM,0.0347 µM,0.135 µM,0.0293,0.225,0.0189 µM,0.104 µM,0.0502,0.403,0.0409,0.201 µM
CCN(CC)CC[n+]1cc2cc(OC)c(OC)cc2c2ccc3cc4c(cc3c21)OCO4,1.48,2.93,2.61,8.6,1.35 µM,3.24 µM,0.37,4.64,1.11 µM,2.88 µM,0.654 µM,2.31 µM,0.418,2.48,0.355 µM,0.996 µM,0.337,1.96,0.52,2.08 µM
Fc1cccc(-c2[nH]nc3nc(Nc4cccnc4)sc23)c1,17.5,> 100,95.1,> 100,> 100 µM,> 100 µM,9.13,> 100,14.9 µM,47 µM,11.3 µM,> 100 µM,3.3,> 100,3.68 µM,> 100 µM,4.71,24.8,> 100,> 100 µM
C=CCSSc1ncnc2c1ncn2C1OC(CO)C(O)C1O (configuration not stated),36.5,> 100,3.63,16.8,4.14 µM,> 100 µM,1.54,6.75,3.67 µM,> 100 µM,0.536 µM,> 100 µM,2.74,13.1,0.37 µM,> 78.6 µM,1.24,> 48.1,0.501,> 87.2 µM
CC[CH2][Sn]([CH2]CC)([O]C(=O)Cc1ccc(F)cc1)[O][Sn]([CH2]CC)([CH2]CC)[O]C(=O)Cc1ccc(F)cc1,0.157,0.446,0.482,1.65,0.243 µM,0.813 µM,0.0614,9.15,0.256 µM,0.92 µM,0.237 µM,0.622 µM,0.266,0.857,0.0851 µM,0.232 µM,0.537,1.8,0.774,2.11 µM
N#Cc1nn(-c2cc(=O)[nH]c3ccc(Br)cc23)c(N)c1C#N,> 100,> 100,> 100,> 100,> 100 µM,> 100 µM,> 100,> 100,> 100 µM,> 100 µM,> 100 µM,> 100 µM,> 100,> 100,> 100 µM,> 100 µM,> 100,> 100,> 100,> 100 µM
C=C1C(=O)O[C@H]2[C@H]1CC/C(COC(=O)NCc1cc(OC)cc(OC)c1)=C\CC[C@@]1(C)O[C@@H]21,1.47,3.54,1.51,2.95,2.02 µM,5.49 µM,2,5.55,1.57 µM,3.07 µM,1.64 µM,3.87 µM,1.35,3.09,0.549 µM,1.89 µM,0.724,2.03,12.8,26.1 µM
CCOC(=O)N1C=CC(=C2C(=C3C=CN(C(=O)OCC)C=C3)C(=C3C=CN(C(=O)OCC)C=C3)C2=C2C=CN(C(=O)OCC)C=C2)C=C1,,> 100,,38.5,,71 µM,,45.1,,> 100 µM,,> 100 µM,,> 100,,45.8 µM,,> 100,,> 100 µM
Cc1cc(N(CCOS(C)(=O)=O)CCOS(C)(=O)=O)ccc1C=Nc1ccc(-c2csc(-c3ccc(Br)cc3)n2)cc1,,99.6,,33.6,,62.3 µM,,> 69.5,,> 76.4 µM,,50.1 µM,,2.89,,36.5 µM,,57.4,,15.6 µM
O=C(O)CCSC(=S)Nc1ccc([N+](=O)[O-])cc1,,> 100,,> 100,,> 100 µM,,> 68,,> 100 µM,,> 100 µM,,> 100,,> 75.7 µM,,> 100,,> 100 µM
O=S(=O)(CCCCl)SCCCCl,,> 100,,> 100,,> 100 µM,,38.5,,28.1 µM,,47.3 µM,,> 69.2,,40.6 µM,,> 100,,> 100 µM
COc1ccc(C2c3c(-c4ccccc4)nn(-c4ccccc4)c3Oc3ncn4nc(CC#N)nc4c32)cc1OC (configuration not stated),,> 100,> 100,> 100,15.9 µM and 2.09 µM,39 µM and 6.28 µM,,> 100,19.9 µM and 8.82 µM,59.2 µM and > 41.6 µM,55.6 µM and 6.33 µM,> 100 µM and 13.3 µM,> 100,> 100,15.7 µM and 3.63 µM,35.8 µM and 26.3 µM,,> 100,,> 100 µM and 17.9 µM
C=C(CN(C)C)C(=O)c1ccc(Oc2ccccc2)cc1,,17.4,,8.72,,34.3 µM,,2.05,,12.9 µM,,4.02 µM,,3.35,,28.5 µM,,27.6,,47.9 µM
Cc1nn(C)c2cc(N(C)c3ccnc(Nc4cccc(S(N)(=O)=O)c4)n3)ccc12,9,> 25,3.44,> 18.1,5.16 µM,> 21.3 µM,6.62,> 23.8,8.69 µM,> 23.5 µM,8.11 µM,> 25 µM,> 17.3,> 25,7.14 µM,> 25 µM,7.18,> 25,> 11.8,> 25 µM
COc1cc(N2CCC(N3CCN(C)CC3)CC2)ccc1Nc1ncc(Cl)c(Nc2ccccc2S(=O)(=O)C(C)C)n1,1.74,3.41,1.12,2.44,0.461 µM,2.14 µM,0.809,5.71,2.09 µM,5.6 µM,1.16 µM,2.51 µM,0.114,0.469,0.332 µM,1.47 µM,1.46,7.88,1.83,4.02 µM
CSC1(CC(=O)N2CCCCC2)C(=O)Nc2ccccc21 (configuration not stated),,> 100,,> 100,,> 100 µM,,> 100,,> 100 µM,,> 100 µM,,> 100,,> 100 µM,,> 100,,> 100 µM
CC#CC(=O)N1CC[C@@H](n2c(=O)n(-c3ccc(Oc4ccccc4)cc3)c3c(N)ncnc32)C1,35.8,> 100,10.8,> 100,23.1 µM,> 100 µM,10.2,62.1,14.5 µM,55 µM,,,36.6,> 100,18.6 µM,83.4 µM,33.5,> 100,40.6,> 100 µM
COc1ccc(C2CC(=O)c3c(O)c(OC)c(OC)c(OC)c3O2)cc1O (configuration not stated),14.4,> 100,2.18,> 100,14.1 µM,> 100 µM,0.105,> 100,0.0745 µM,31.2 µM,0.0515 µM,> 100 µM,6.63,32.5,0.0701 µM,> 100 µM,0.225,> 100,0.371,> 100 µM
O=C(NCCCCCCNC(=O)OCc1ccc2c(Cl)cc(Cl)c(O)c2n1)OCc1ccc2c(Cl)cc(Cl)c(O)c2n1,1.19,2.42,0.619,1.95,1.07 µM,2.54 µM,0.688,5.55,0.748 µM,2.17 µM,0.893 µM,2.32 µM,0.589,2.19,0.325 µM,1.1 µM,1.03,2.24,5.5,17.9 µM
Nc1nc(-c2ccc(Cl)cc2)cc(-c2ccccc2)c1-c1nc2ccccc2o1,15.2,34,10.3,26.4,15.1 µM,31.3 µM,3.3,11.4,13.5 µM,28.3 µM,10.4 µM,26.2 µM,19.1,35.9,2.42 µM,5.77 µM,7.68,30.4,15.4,32.4 µM
CC1=CC(=O)c2ccc(C)cc2C1=O,,22.7,,24.6,,39.5 µM,,6.24,,25 µM,,30.8 µM,,31.1,,17.5 µM,,35.7,,30.5 µM
